Measurements: ChEMBL document CHEMBL1201862, “PubChem BioAssay data set” (2004)
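Growth conditions: 96-well plates. Treatment: test compound, 48 hours, 5 concentrations. Analysis: linear interpolation between bracketing concentrations; unreached endpoints set to highest concentration. At the GI50, growth is halved.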 Activity calls are given as the source filed them. Rule as the data show it: active = GI50 up to about 1.1 µM and inactive = higher.

Legend:
Test in all cases: NCI tumour cell line growth inhibition, 48 h
HT-29 = system: HT-29
DLD-1 = system: DLD-1
DMS-114 = system: DMS-114
KM12 = system: KM12
A498 = system: A498
SK-MEL-28 = system: SK-MEL-28
Malme-3M = system: Malme-3M
TK-10 = system: TK-10
OVCAR-4 = system: OVCAR-4
SN12C = system: SN12C
IGROV-1 = system: IGROV-1
SW-620 = system: SW-620
UO-31 = system: UO-31
SNB-19 = system: SNB-19
NCI-H522 = system: NCI-H522
M19-MEL = system: M19-MEL
NCI-H226 = system: NCI-H226
A549 = system: A549
U-251 = system: U-251
CAKI-1 = system: CAKI-1
UACC-257 = system: UACC-257
EKVX = system: EKVX
SF-539 = system: SF-539
RPMI-8226 = system: RPMI-8226
SNB-75 = system: SNB-75
SK-OV-3 = system: SK-OV-3
NCI-H23 = system: NCI-H23
K562 = system: K562
XF498 = system: XF498
NCI-H460 = system: NCI-H460
DMS-273 = system: DMS-273
CCRF-CEM = system: CCRF-CEM
SR = system: SR
SK-MEL-5 = system: SK-MEL-5
OVCAR-5 = system: OVCAR-5
M14 = system: M14
COLO 205 = system: COLO 205
SF-268 = system: SF-268
HCT-15 = system: HCT-15
SF-295 = system: SF-295
OVCAR-3 = system: OVCAR-3
UACC-62 = system: UACC-62
MOLT-4 = system: MOLT-4
KM-20L2 = system: KM-20L2
HOP-62 = system: HOP-62
HL-60 = system: HL-60
OVCAR-8 = system: OVCAR-8
ACHN = system: ACHN
HCT-116 = system: HCT-116
LXFL 529 = system: LXFL 529
HOP-92 = system: HOP-92
LOX IMVI = system: LOX IMVI
RXF 393 = system: RXF 393
786-0 = system: 786-0
HCC 2998 = system: HCC 2998
SK-MEL-2 = system: SK-MEL-2
SNB-78 = system: SNB-78
NCI/ADR-RES = system: NCI/ADR-RES
DU-145 = system: DU-145
BT-549 = system: BT-549
MCF7 = system: MCF7
MDA-MB-231 = system: MDA-MB-231
MDA-N = system: MDA-N
PC-3 = system: PC-3
MDA-MB-435 = system: MDA-MB-435

Cc1ccc(/N=N/C(C2=NC(=O)CS2)c2nc3ccccc3[nH]2)cc1 (stereo not drawn)
GI50 (HT-29): > 100 µM (inactive)
GI50 (DLD-1): > 100 µM (inactive)
GI50 (DMS-114): > 100 µM (inactive)
GI50 (KM12): > 100 µM (inactive)
GI50 (A498): > 100 µM (inactive)
GI50 (SK-MEL-28): > 100 µM (inactive)
GI50 (Malme-3M): > 100 µM (inactive)
GI50 (TK-10): > 100 µM (inactive)
GI50 (OVCAR-4): > 100 µM (inactive)
GI50 (SN12C): > 100 µM (inactive)
GI50 (IGROV-1): > 100 µM (inactive)
GI50 (SW-620): > 100 µM (inactive)
GI50 (UO-31): > 100 µM (inactive)
GI50 (SNB-19): > 100 µM (inactive)
GI50 (NCI-H522): > 100 µM (inactive)
GI50 (M19-MEL): > 100 µM (inactive)
GI50 (NCI-H226): 6.1 µM (inactive)
GI50 (A549): > 100 µM (inactive)
GI50 (U-251): > 100 µM (inactive)
GI50 (CAKI-1): > 100 µM (inactive)
GI50 (UACC-257): > 100 µM (inactive)
GI50 (EKVX): > 100 µM (inactive)
GI50 (SF-539): 54.6 µM (inactive)
GI50 (RPMI-8226): > 100 µM (inactive)
GI50 (SNB-75): 59.2 µM (inactive)
GI50 (SK-OV-3): > 100 µM (inactive)
GI50 (NCI-H23): > 100 µM (inactive)
GI50 (K562): > 100 µM (inactive)
GI50 (XF498): > 100 µM (inactive)
GI50 (NCI-H460): > 100 µM (inactive)
GI50 (DMS-273): > 100 µM (inactive)
GI50 (CCRF-CEM): 29.9 µM (inactive)
GI50 (SR): > 100 µM (inactive)
GI50 (SK-MEL-5): > 100 µM (inactive)
GI50 (OVCAR-5): > 100 µM (inactive)
GI50 (M14): > 100 µM (inactive)
GI50 (COLO 205): > 100 µM (inactive)
GI50 (SF-268): 38.5 µM (inactive)
GI50 (HCT-15): > 100 µM
GI50 (SF-295): > 100 µM (inactive)
GI50 (OVCAR-3): > 100 µM (inactive)
GI50 (UACC-62): > 100 µM (inactive)
GI50 (MOLT-4): 20.7 µM (inactive)
GI50 (KM-20L2): > 100 µM (inactive)
GI50 (HOP-62): 27.2 µM (inactive)
GI50 (HL-60): > 100 µM (inactive)
GI50 (OVCAR-8): > 100 µM (inactive)
GI50 (ACHN): > 100 µM (inactive)
GI50 (HCT-116): > 100 µM (inactive)
GI50 (LXFL 529): > 100 µM (inactive)
GI50 (HOP-92): > 100 µM (inactive)

CC(C)=CCC/C(C)=C/CC/C(C)=C/CCC1(C)CCC([C@H](C)C(=O)O)OO1.CC1=C(CC/C(C)=C/CCC2(C)CCC([C@H](C)C(=O)O)OO2)C(C)(C)CCC1 (stereo partly drawn)
GI50 (HT-29): > 100 µM (inactive)
GI50 (DLD-1): > 100 µM (inactive)
GI50 (DMS-114): > 100 µM (inactive)
GI50 (KM12): > 100 µM (inactive)
GI50 (SK-MEL-28): > 100 µM (inactive)
GI50 (Malme-3M): > 100 µM (inactive)
GI50 (LOX IMVI): > 100 µM (inactive)
GI50 (TK-10): > 100 µM (inactive)
GI50 (OVCAR-4): > 100 µM (inactive)
GI50 (SN12C): > 100 µM (inactive)
GI50 (SW-620): > 100 µM (inactive)
GI50 (UO-31): > 100 µM (inactive)
GI50 (SNB-19): > 100 µM (inactive)
GI50 (NCI-H522): > 100 µM (inactive)
GI50 (RXF 393): > 100 µM (inactive)
GI50 (M19-MEL): > 100 µM (inactive)
GI50 (786-0): > 100 µM (inactive)
GI50 (NCI-H226): > 100 µM (inactive)
GI50 (A549): > 100 µM (inactive)
GI50 (U-251): > 100 µM (inactive)
GI50 (CAKI-1): > 100 µM (inactive)
GI50 (HCC 2998): 85.3 µM (inactive)
GI50 (UACC-257): > 100 µM (inactive)
GI50 (EKVX): > 100 µM (inactive)
GI50 (SF-539): > 100 µM (inactive)
GI50 (SK-MEL-2): > 100 µM (inactive)
GI50 (SNB-75): > 100 µM (inactive)
GI50 (NCI-H23): > 100 µM (inactive)
GI50 (NCI-H460): > 100 µM (inactive)
GI50 (DMS-273): > 100 µM (inactive)
GI50 (OVCAR-5): > 100 µM (inactive)
GI50 (M14): > 100 µM (inactive)
GI50 (COLO 205): > 100 µM (inactive)
GI50 (SNB-78): > 100 µM (inactive)
GI50 (SF-268): > 100 µM (inactive)
GI50 (SF-295): > 100 µM (inactive)
GI50 (OVCAR-3): > 100 µM (inactive)
GI50 (KM-20L2): > 100 µM (inactive)
GI50 (HOP-62): > 100 µM (inactive)
GI50 (HL-60): > 100 µM (inactive)
GI50 (OVCAR-8): > 100 µM (inactive)
GI50 (ACHN): > 100 µM (inactive)
GI50 (HCT-116): > 100 µM (inactive)
GI50 (LXFL 529): > 100 µM (inactive)
GI50 (HOP-92): > 100 µM (inactive)

CC[C@@]1(O)C(=O)OCc2c1cc1n(c2=O)Cc2cc3cc(OC)ccc3nc2-1
GI50 (HT-29): 0.0268 µM (active)
GI50 (DMS-114): 0.01 µM (active)
GI50 (NCI/ADR-RES): 0.073 µM (active)
GI50 (KM12): 0.139 µM (active)
GI50 (A498): 0.415 µM (active)
GI50 (SK-MEL-28): 0.372 µM (active)
GI50 (Malme-3M): 0.255 µM (active)
GI50 (DU-145): 0.00439 µM (active)
GI50 (LOX IMVI): 0.0221 µM (active)
GI50 (TK-10): 3.01 µM (inactive)
GI50 (BT-549): 0.0308 µM (active)
GI50 (MCF7): 0.0041 µM (active)
GI50 (OVCAR-4): 0.00845 µM (active)
GI50 (SN12C): 0.0245 µM (active)
GI50 (MDA-MB-231): 0.0843 µM (active)
GI50 (IGROV-1): 0.106 µM (active)
GI50 (SW-620): 0.0248 µM (active)
GI50 (UO-31): 0.0333 µM (active)
GI50 (SNB-19): 0.00843 µM (active)
GI50 (NCI-H522): 0.0246 µM (active)
GI50 (RXF 393): 0.016 µM (active)
GI50 (M19-MEL): 0.0537 µM (active)
GI50 (786-0): 0.00923 µM (active)
GI50 (NCI-H226): 0.016 µM (active)
GI50 (MDA-N): 0.142 µM (active)
GI50 (A549): 0.0249 µM (active)
GI50 (U-251): 0.00407 µM (active)
GI50 (CAKI-1): 0.00476 µM (active)
GI50 (HCC 2998): 0.0276 µM (active)
GI50 (UACC-257): 0.15 µM (active)
GI50 (EKVX): 0.546 µM (active)
GI50 (SF-539): 0.0033 µM (active)
GI50 (PC-3): 0.0364 µM (active)
GI50 (SK-MEL-2): 0.16 µM (active)
GI50 (RPMI-8226): 0.107 µM (active)
GI50 (SNB-75): 0.00427 µM (active)
GI50 (SK-OV-3): 0.0498 µM (active)
GI50 (NCI-H23): 0.00902 µM (active)
GI50 (MDA-MB-435): 0.0441 µM (active)
GI50 (K562): 0.123 µM (active)
GI50 (NCI-H460): 0.00607 µM (active)
GI50 (DMS-273): 0.01 µM (active)
GI50 (CCRF-CEM): 0.00457 µM (active)
GI50 (SR): 0.00667 µM (active)
GI50 (SK-MEL-5): 0.0211 µM (active)
GI50 (OVCAR-5): 0.0452 µM (active)
GI50 (M14): 0.00718 µM (active)
GI50 (COLO 205): 0.116 µM (active)
GI50 (SF-268): 0.00509 µM (active)
GI50 (HCT-15): 0.116 µM
GI50 (SF-295): 0.008 µM (active)
GI50 (OVCAR-3): 0.435 µM (active)
GI50 (UACC-62): 0.00244 µM (active)
GI50 (MOLT-4): 0.00458 µM (active)
GI50 (KM-20L2): 0.0604 µM (active)
GI50 (HOP-62): 0.00562 µM (active)
GI50 (HL-60): 0.018 µM (active)
GI50 (OVCAR-8): 0.0448 µM (active)
GI50 (ACHN): 0.00476 µM (active)
GI50 (HCT-116): 0.0197 µM (active)
GI50 (LXFL 529): 0.144 µM (active)
GI50 (HOP-92): 0.0114 µM (active)
